Test system: CYLD
Assay: Immunoblot analysis of CYLD levels in Klebsiella pneumoniae infected cells
Assay type: cell-based
Details: U0126 10 mM; infected for 3 h; versus vehicle control
Protocol: An immunoblot analysis of CYLD levels in Klebsiella pneumoniae infected cells for 3 h in the presence of vehicle control (Kp) or PI3K inhibitor (LY294002, […]), AKT inhibitor ([…]), ERK inhibitor (U0126, […]) is shown. Membranes were reprobed for tubulin as a loading control.

SMILES: N#CC(=C(/N)Sc1ccccc1N)/C(C#N)=C(\N)Sc1ccccc1N [U0126]
- Klebsiella pneumoniae induced production of CYLD in the presence of inhibitor: PI3K-AKT-ERK dependent manner

Source: patent publication US20130323284A1, “USE OF mTOR INHIBITORS TO TREAT BACTERIAL INFECTION” (JAZZYA INVESTMENTS, priority 2012, published 2013)
